Measurements as given in publication PMC11808397, “Development of selective nanomolar cyclic peptide ligands as GBA1 enzyme stabilisers” (RSC Chemical Biology, 2025).

Key:
[1] = target: T1, recombinant human GBA1 (rhGBA1, Cerezyme) (Homo sapiens, UniProt P04062, R534H); test: Thermostability of rhGBA1, label-free differential scanning fluorimetry (Tycho NT.6); type: binding; details: rhGBA1 at 1 μM, 20 mM HEPES pH 7.0, 100 mM NaCl, 0.5% DMSO, 2 h room temperature; N. D. = not determined due to a lack of stabilisation effect
T1 construct: purchased Cerezyme
T1 sequence (P04062 40-536 R534H): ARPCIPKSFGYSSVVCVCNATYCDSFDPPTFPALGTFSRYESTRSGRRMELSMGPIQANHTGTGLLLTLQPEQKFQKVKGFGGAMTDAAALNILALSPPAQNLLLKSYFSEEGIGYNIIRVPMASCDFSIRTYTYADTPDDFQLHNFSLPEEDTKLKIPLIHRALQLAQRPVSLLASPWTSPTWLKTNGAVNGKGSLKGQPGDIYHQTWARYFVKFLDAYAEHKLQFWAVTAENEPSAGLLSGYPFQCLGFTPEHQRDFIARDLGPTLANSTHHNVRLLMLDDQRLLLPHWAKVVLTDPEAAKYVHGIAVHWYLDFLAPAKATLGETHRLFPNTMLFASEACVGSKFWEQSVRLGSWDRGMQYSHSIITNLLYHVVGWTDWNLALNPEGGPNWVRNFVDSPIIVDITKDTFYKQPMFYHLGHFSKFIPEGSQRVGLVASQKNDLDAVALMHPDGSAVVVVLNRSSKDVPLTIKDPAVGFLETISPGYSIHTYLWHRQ
Description: Samples were incubated at room temperature for 2
hours before measurement in the Tycho NT6.
Thermostability assays in rhGBA (Cerezyme)
Varying concentrations of peptides were incubated with 1 µM rhGBA1 in 20 mM HEPES pH 7.0 with 100 mM NaCl, with a final DMSO concentration of 0.5 %, for 2 hours at room temperature. Melting

[2] = test system: rhGBA1 (Cerezyme) in plasma; test: Stabilisation of rhGBA1 in plasma, 4-MU activity; type: biochemical, human; details: rhGBA1 10 nM in plasma, peptides 0.001-10 μM or Ambroxol 100-1000 μM, 0-120 minutes, 0.5% DMSO
Description: We then investigated whether peptides L4, D8, and D12 could stabilise rhGBA1 in plasma. […] The solutions were then incubated with 4-MU-β-D-Glu for an additional 30 minutes, and the remaining rhGBA1 activity was determined.
Specifically, high concentrations of all peptides (10–1 μM) led to enzyme binding but also GBA1 inhibition after short incubations (0 to 30 minutes). […] To discard potential degradation of D8 and D12 during plasma experiments, the peptides were incubated in plasma at 0.1 μM for 2 hours, followed by the addition of rhGBA1 to measure its activity. This was compared to controls where D8 and D12 were added to plasma and directly tested for GBA1 activity.
Fig. 3 Stabilisation of rhGBA1 (10 nM) in plasma by cyclic peptides D8 and D12. […] Control contained 0.5% DMSO. Error ranges depict standard deviations from n = 3 replicates, measured in technical duplicates. *p < 0.05, **p < 0.01, ***p < 0.001.
Selective Cyclic Peptide Ligands as GBA1 Stabilizers Katzy et al. curves were determined in triplicate using the Tycho NT.6 (NanoTemper), according to manufacturer […]
2.9. Cerezyme Stabilization studies in plasma […]
Specific GBA1 activity was determined as described above, with 25 µL of sample incubated for 30 min with 3.7 mM 4MU-β-Glc substrate.

ΔTi,max [1]: 12.3 ± 5.4 °C
SMILES: Nc1c(Br)cc(Br)cc1CN[C@H]1CC[C@H](O)CC1 [Ambroxol, reference compound]
stabilisation of rhGBA1 against degradation in plasma [2]: no stabilisation effect
